Data published in patent publication US9226907B2 (priority 2008, dated 2016).

Assays:
[1] = in vivo
clinical = conditions: in vivo
Source text: Hydrocodone is structurally similar to other opioid analgesics (hydromorphone and oxycodone).

[2] = higher drug concentrations associated with overdosage (280 μg/mL); cited from earlier work

CC(=O)Nc1ccc(O)cc1 [acetaminophen, 4′-hydroxyacetanilide]
Variability in exposures (Cmax and AUC) ([1]; human): not affected by ethanol coadministration
AUC with different ethanol concentrations versus 0% ethanol [1]: equivalent to that of Vicodin CR alone
Effect of food on Cmax or AUC (clinical; human): no effect on Cmax or AUC
Time by which steady state was achieved (clinical; human): ≤ 24 h
Vd (clinical; human): 78 to 245 L
Cmax and AUC versus dose (clinical): proportional to dose
Bound to plasma proteins [2]: 15-21%
